Laboratory results: ChEMBL document CHEMBL1201862, “PubChem BioAssay data set” (2004)
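Cultured in 96-well plates, cells were exposed to test compound for 48 hours across five concentrations. GI50: concentration for 50% inhibition of growth.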 The source made the active and inactive calls. Cut-off read from the data, not from the text of the source: active = GI50 up to about 1.1 µM and inactive = higher.

How the values were obtained:
Assay in all cases: NCI anticancer screen, dose series, 48 h
U-251 = system: U-251
786-0 = system: 786-0
SNB-19 = system: SNB-19
SK-MEL-2 = system: SK-MEL-2
SNB-75 = system: SNB-75
M14 = system: M14
COLO 205 = system: COLO 205
A549 = system: A549
MDA-MB-435 = system: MDA-MB-435
SF-295 = system: SF-295
BT-549 = system: BT-549
SK-OV-3 = system: SK-OV-3
UACC-62 = system: UACC-62
PC-3 = system: PC-3
NCI/ADR-RES = system: NCI/ADR-RES
HL-60 = system: HL-60
SF-539 = system: SF-539
OVCAR-5 = system: OVCAR-5
MDA-N = system: MDA-N
UO-31 = system: UO-31

Measured: GI50

C=C1c2nc3ccccc3n2C=C(c2ccc(OC)cc2)N1c1ccc(OCCN2CCCCC2)cc1
inactive: U-251 7.59 µM | 786-0 14.2 µM | SNB-19 11.3 µM | SK-MEL-2 22.1 µM | SNB-75 50.5 µM | M14 14.2 µM | COLO 205 18.7 µM | A549 17.6 µM | MDA-MB-435 8.69 µM | SF-295 8.85 µM | BT-549 11.7 µM | SK-OV-3 49.1 µM | UACC-62 20.7 µM | PC-3 15.2 µM | NCI/ADR-RES 4.73 µM | HL-60 3.58 µM | SF-539 20.2 µM | OVCAR-5 > 74.1 µM | MDA-N 19.7 µM | UO-31 8.22 µM

CCc1c(Cl)c(C)cc(O)c1Cl
inactive: U-251 15.6 µM | 786-0 38.2 µM | SNB-19 38.7 µM | SK-MEL-2 20.8 µM | SNB-75 56.8 µM | M14 34.7 µM | COLO 205 43.7 µM | A549 44.4 µM | MDA-MB-435 35.6 µM | SF-295 33.1 µM | BT-549 16.6 µM | SK-OV-3 > 100 µM | UACC-62 32.6 µM | PC-3 19.6 µM | NCI/ADR-RES 45.2 µM | HL-60 18.3 µM | SF-539 23 µM | OVCAR-5 > 100 µM | MDA-N 19.4 µM | UO-31 23.7 µM

C/C(=C\COc1ccc2ccc(=O)oc2c1)CCC(=O)C(C)(C)O
inactive: U-251 19.8 µM | 786-0 18.3 µM | SNB-19 32.7 µM | SK-MEL-2 39.1 µM | SNB-75 68.1 µM | M14 22 µM | COLO 205 20.7 µM | A549 26.7 µM | MDA-MB-435 21.4 µM | SF-295 38.4 µM | BT-549 18.1 µM | SK-OV-3 36 µM | UACC-62 18.3 µM | PC-3 53.5 µM | NCI/ADR-RES 27.9 µM | HL-60 15.2 µM | SF-539 21 µM | OVCAR-5 40.8 µM | MDA-N 25.6 µM | UO-31 28.4 µM

O=C1OC(=O)C2CCCC3CCCC1C32 (stereo not given)
inactive: U-251 > 100 µM | 786-0 > 100 µM | SNB-19 > 100 µM | SK-MEL-2 > 100 µM | SNB-75 > 100 µM | M14 > 100 µM | COLO 205 > 100 µM | A549 > 100 µM | MDA-MB-435 > 100 µM | SF-295 > 100 µM | BT-549 > 100 µM | SK-OV-3 > 100 µM | UACC-62 > 100 µM | PC-3 > 100 µM | NCI/ADR-RES > 100 µM | HL-60 > 100 µM | SF-539 > 100 µM | OVCAR-5 > 100 µM | MDA-N > 100 µM | UO-31 > 100 µM

CC1(O)CCC(C(C)(C)O)CC1 (stereo not given) [TERPIN]
inactive: U-251 > 100 µM | 786-0 > 100 µM | SNB-19 > 100 µM | SK-MEL-2 > 100 µM | SNB-75 > 100 µM | M14 > 100 µM | COLO 205 > 100 µM | A549 > 100 µM | MDA-MB-435 > 100 µM | SF-295 > 100 µM | BT-549 > 100 µM | SK-OV-3 > 100 µM | UACC-62 > 100 µM | PC-3 > 100 µM | NCI/ADR-RES > 100 µM | HL-60 > 100 µM | SF-539 > 100 µM | OVCAR-5 > 100 µM | MDA-N > 100 µM | UO-31 > 100 µM
